Laboratory results from patent publication US6297282A, “Substituted derivatives of benzosulphonamides as inhibitors of the enzyme cyclooxygenase II” (Nycomed Austria GmbH, priority 1997, dated 2001).

How the values were obtained:
[1] = biological target: T1, cyclooxygenase-I (human COX-1) (Homo sapiens, UniProt P23219); assay: Human COX-1 Test (inhibition of arachidonic acid-induced aggregation of washed human thrombocytes); assay type: cell-based; settings: arachidonic acid 10 μM final concentration, 37° C., test substance added 2 minutes before
T1 construct: arachidonic acid-induced aggregation of washed human thrombocytes; endogenous in cells; host or cells: washed human thrombocytes (blood platelets)
T1 sequence (P23219 24-599): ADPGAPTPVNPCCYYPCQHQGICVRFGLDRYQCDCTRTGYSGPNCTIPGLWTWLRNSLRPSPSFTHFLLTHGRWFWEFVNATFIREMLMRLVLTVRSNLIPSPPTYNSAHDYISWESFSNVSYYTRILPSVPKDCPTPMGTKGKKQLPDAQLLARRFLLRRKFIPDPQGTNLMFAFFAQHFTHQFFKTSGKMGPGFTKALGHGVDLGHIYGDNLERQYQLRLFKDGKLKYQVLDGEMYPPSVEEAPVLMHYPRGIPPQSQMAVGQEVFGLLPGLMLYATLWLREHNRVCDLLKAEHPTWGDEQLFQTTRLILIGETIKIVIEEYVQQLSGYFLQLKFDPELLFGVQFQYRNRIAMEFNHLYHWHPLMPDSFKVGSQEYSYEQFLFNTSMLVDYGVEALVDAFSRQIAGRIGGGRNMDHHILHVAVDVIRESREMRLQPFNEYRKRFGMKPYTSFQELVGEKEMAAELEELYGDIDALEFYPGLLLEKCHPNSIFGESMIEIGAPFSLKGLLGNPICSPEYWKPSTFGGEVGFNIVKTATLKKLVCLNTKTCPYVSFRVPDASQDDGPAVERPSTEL
Method: Inhibition of the arachidonic acid-induced aggregation of washed human thrombocytes was used as a test system for an estimation of the inhibition of cyclooxygenase-I. A thrombocyte suspension at 37° C. was added to the test substances 2 minutes before addition of the arachidonic acid (10 μM final concentration) and the aggregation course was recorded via an aggregometer. With the assistance of a concentration-effect curve, the concentration of test substance was determined at which 50% aggregation was measured (IC50).

[2] = biological target: T2, cyclooxygenase-II (human COX-2) (Homo sapiens, UniProt P35354); assay: Human COX-2 Test (LPS-stimulated human monocytoid cell line, arachidonic acid, ELISA of cyclooxygenase products); assay type: cell-based; settings: for IC50: LPS-stimulated human monocytoid cell line, half an hour incubation, then arachidonic acid 15 minutes, 37° C.; for COX I/COX II (selectivity): ratio of COX I IC50 to COX II IC50
T2 construct: endogenous in cells
T2 sequence (P35354 18-604): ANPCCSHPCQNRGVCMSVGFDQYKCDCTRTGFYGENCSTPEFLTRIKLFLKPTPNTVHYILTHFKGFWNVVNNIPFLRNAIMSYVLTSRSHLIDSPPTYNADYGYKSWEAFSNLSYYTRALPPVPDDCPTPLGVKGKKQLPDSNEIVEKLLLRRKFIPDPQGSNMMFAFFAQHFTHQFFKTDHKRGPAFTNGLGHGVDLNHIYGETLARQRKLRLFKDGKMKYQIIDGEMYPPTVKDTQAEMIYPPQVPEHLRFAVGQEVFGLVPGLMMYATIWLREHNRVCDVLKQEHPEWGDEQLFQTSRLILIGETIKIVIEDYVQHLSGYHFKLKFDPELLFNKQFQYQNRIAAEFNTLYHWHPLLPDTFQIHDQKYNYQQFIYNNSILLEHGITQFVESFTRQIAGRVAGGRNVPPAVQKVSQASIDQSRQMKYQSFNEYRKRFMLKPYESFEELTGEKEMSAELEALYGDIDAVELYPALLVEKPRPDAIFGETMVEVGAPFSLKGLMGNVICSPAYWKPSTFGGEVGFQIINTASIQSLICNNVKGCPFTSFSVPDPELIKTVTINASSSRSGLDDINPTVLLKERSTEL
Method: Cells of a human monocytoid cell line were stimulated with lipopolysaccharide (LPS) (incubator at 37° C., 5% CO2 -enriched atmosphere and almost 100% atmospheric humidity), in order to induce COX-2. Following this, the culture medium (RPMI 1640, enriched with 10% FCS, 2 mM glutamine, 10000 U/ml penicillin, […] and 1 mM pyruvate) is refreshed and potential inhibitor substances of cyclooxygenase-II, dissolved in culture medium or in phosphate-buffered saline or in some other solvent compatible with cell cultures, are added and then incubated for half an hour as described above. Arachidonic acid is added by pipette and incubation is carried out for a further 15 minutes. The culture supernatant of the cells is removed and its content of products of cyclooxygenase metabolism (e.g. Prostaglandin E2, Prostaglandin F1a, Thromboxane B2) is measured by ELISA.

| Compound | IC50 [1] [µM] | IC50 [2] [µM] | COX I/COX II (selectivity) [2] |
| --- | --- | --- | --- |
| CS(=O)(=O)Nc1ccc(S(N)(=O)=O)c(Cl)c1Sc1ccc(Cl)cc1Cl [Example 1, 3-(2,4-Dichlorophenylthio)-2-chloro-4-methylsulphonylamino-benzosulphonamide] | 25 | 0.1 | 250 |
| C=CS(=O)(=O)Nc1ccc(S(N)(=O)=O)cc1Sc1ccc(Cl)cc1Cl [Example 6, 3-(2,4-dichlorophenylthio)-4-vinylsulphonyl-amino-benzosulphonamide] | 20 | 0.1 | 200 |
